Assay results as given in patent publication US4550107A, “Condensed diazepinones, their compositions and methods of use as pharmaceuticals” (Dr. Karl Thomae GmbH, priority 1984, dated 1985).
“And” between values parts separate entries of the source, which are not always exact repeats. Equal entries are not always repeated.

How the values were obtained:
gastric acid secretion = experiment: Inhibition of gastric acid secretion in pylorus-ligated rats (Shay rat); type: in vivo, male Wistar rats; conditions: iv, 2 h, i.v., 5 min before pylorus ligature, volume or acid output reduced by 50%
Description: (§1) The methods used have the objective of confirming the selectivity of the antimuscarinic acitivity. Those substances which are selected on the basis of "in vitro" investigations are tested for:
2. inhibitory effect on gastric acid secretion in pylorous-ligated rats; and
2. Inhibition of secretion in rats
Increasing doses of the substance are injected intravenously into male Wistar rats (10 rats per group) 5 minutes before the ligature of the pylorus. The rats are killed 2 hours later and both the volume of gastric acid and also the "acid output" are determined by titration. The dosage of substance which reduces either the volume or the acid output by 50% is determined.

heart rate = experiment: Heart rate increasing activity (tachycardia) in the conscious dog; type: in vivo; conditions: Canis lupus familiaris, iv; dose increasing heart rate by 50 beats per minute; conscious dogs; read-out: Tachycardia (dog) ED50
Description: as §1
1. tachycardiac effect in conscious dogs;
1. Heart rate increasing activity in the conscious dogs
The substances are injected intravenously and the heart rate is measured with the aid of a tachygraph. After a control period, increasing doses of the compound are administered in order to increase the heart rate. The next dose is injected when the effect of the preceding dose is no longer visible. […] Each substance is tested on 3 to 5 dogs.

[1] = molecular target: T1, muscarinic receptors (heart) (Rattus norvegicus, UniProt P10980); experiment: Receptor binding tests: inhibition of specific 3H-N-methylscopolamine binding, whole heart; parameters: species or system Sprague-Dawley rats; conditions: whole heart homogenate 1:250; 0.3 nM 3H-NMS; 30° C., 45 min, pH 7.4
T1 construct: The whole heart is cut up with scissors; All the organs are then homogenised in a Potter apparatus; from tissue; host or cells: rat whole heart, homogenised (1:250)
T1 sequence (P10980 1-466): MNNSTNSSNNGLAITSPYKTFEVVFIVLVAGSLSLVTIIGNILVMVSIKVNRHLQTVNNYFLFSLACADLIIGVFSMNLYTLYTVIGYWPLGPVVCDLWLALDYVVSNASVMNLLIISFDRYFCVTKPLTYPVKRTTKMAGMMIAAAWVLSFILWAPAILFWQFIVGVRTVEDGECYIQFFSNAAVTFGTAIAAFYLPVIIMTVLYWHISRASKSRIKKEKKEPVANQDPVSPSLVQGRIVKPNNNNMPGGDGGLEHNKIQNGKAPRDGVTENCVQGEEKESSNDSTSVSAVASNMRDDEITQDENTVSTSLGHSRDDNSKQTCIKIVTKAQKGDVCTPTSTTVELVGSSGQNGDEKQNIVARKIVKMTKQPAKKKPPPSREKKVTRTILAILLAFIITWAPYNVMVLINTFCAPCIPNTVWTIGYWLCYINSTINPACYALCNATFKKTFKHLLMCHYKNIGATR
Description: (§2) B. Studies of binding to muscarinic receptors: determining the IC50 value
(§3) The organ donors are Sprague-Dawley rats weighing from 180-220 g. After the removal of the heart, stomach and cerebral cortex, all the other steps are carried out in ice-cold Hepes-HCl buffer (pH 7.4; 100 m molar NaCl, 10 m molar MgCl2). The whole heart is cut up with scissors. All the organs are then homogenised in a Potter apparatus. For the bonding test, the homogenised organs are diluted as follows:
(§4) The homogenised organs are incubated at a specific concentration of the radioligand and with a series of concentrations of the non-radioactive test substances in an Eppendorf centrifugal test tube at 30° C. Incubation lasts 45 minutes. The radioligand is 0.3 n molar ^3 H-N-methylscopolamine (^3 H-NMS). After incubation has been ended by centrifuging at 14,000 g, the radioactivity in the pellet is determined. It represents the sum of specific and non-specific binding of ^3 H-NMS. The proportion of non-specific binding is defined as the radioactivity which binds in the presence of 1 μmolar quinuclidinyl benzylate. Four measurements are made in each case. The IC50 values of the non-labeled test substances are determined graphically. They represent the concentration of test substance at which the specific binding of ^3 H-NMS to the muscarinic receptors in the various organs is inhibited by 50%.

[2] = molecular target: muscarinic receptors (cerebral cortex); experiment: Receptor binding tests: inhibition of specific 3H-N-methylscopolamine binding, cerebral cortex; parameters: species or system Sprague-Dawley rats; conditions: cerebral cortex homogenate 1:3000; 0.3 nM 3H-NMS; 30° C., 45 min, pH 7.4
Description: as §2, §3, §4

[3] = Stability of separated diastereoisomers (reversion into the original mixture); type: physicochemical; conditions: for stability in crystalline form: temperature below the melting point
Source text: The base-substituted condensed diazepinones of formula I according to the invention contain up to two independent chiral elements, including an asymmetric carbon atom in the side chain. The second chiral element is the acylated tricyclic moiety itself, which can occur in two mirror-image forms. The nature of the tricyclic compound determines whether the energy barrier for inversion at this center is so high that the individual isomers are stable at ambient temperature and capable of being isolated.
The title compound is prepared analogously to Example 2 from 5-(chloroacetyl)-5,10-dihydro-11H-dibenzo[b,e][1,4]diazepin-11-one and D,L-2-[(4-methyl-1-piperazinyl)methyl]-piperidine to give colorless crystals, mp. 200°-202° C. (acetonitrile/activated charcoal). According to thin layer chromatography (Polygram® SIL G/UV254; eluant: dichloromethane/ethyl acetate/cyclohexane/methanol/conc. ammonia 3.5:1.5:0.46: 0.46:0.06; RF approx. 0.25) it is a mixture of isomers in a quantity ratio of approximately 1:1. Preparative separation is carried out by the following method:
(a) By liquid chromatography (HPLC):
Mobile Phase: Methylene chloride/cyclohexane/methanol/conc. ammonia (200:210:40:0.5 v/v);
In each case, a solution (100 μl) of the diastereoisomer mixture (15.2 mg) is injected into the mobile phase (1 ml) and thus placing the substance (1.5 mg) on the column.
(b) By liquid chromatography on a Jobin-Yvon chromatospac Prep using Li Chroprep Si 60, 25-40 μm (Merck-Darmstadt, Art. 9390) under a pressure of 10 bar.

Row | Compound | IC50 [1] | IC50 [2] | further results
1 | CCN(CC)CC1CCCCN1CC(=O)N1c2ccccc2C(=O)Nc2cccnc21 (racemic) [A] | 140 nM and 150 nM |  | ED50 (gastric acid secretion): > 10 mg/kg; ED (increase of 50 beats per minute) (heart rate): 0.103 mg/kg
2 | CN(CC1CCCCN1CC(=O)N1c2ccccc2C(=O)Nc2cccnc21)[C@H]1CC[C@H](O)CC1 (relative stereo) [K] | 70 nM | 1100 nM | 
3 | CN1CCN(CC2CCCCN2CC(=O)N2c3ccccc3NC(=O)c3ccccc32)CC1 (single isomer, unassigned) [Isomer I, 5,10-Dihydro-5-[[2-[(4-methyl-1-piperazinyl)methyl]-1-piperidinyl]-acetyl]-11H-dibenzo[b,e][1,4]diazepin-11-one] |  |  | stability in crystalline form [3]: completely stable; half-life ([3]; hplc mobile phase solution, ambient temperature, mobile phase methylene chloride/cyclohexane/methanol/conc. ammonia, read-out: reverts into the original mixture, t1/2): < 216 h
4 | CN1CCN(CC2CCCCN2CC(=O)N2c3ccccc3NC(=O)c3ccccc32)CC1 (single isomer, unassigned) [Isomer II, 5,10-Dihydro-5-[[2-[(4-methyl-1-piperazinyl)methyl]-1-piperidinyl]-acetyl]-11H-dibenzo[b,e][1,4]diazepin-11-one] |  |  | stability in crystalline form [3]: completely stable
5 | CN1CCN(CC(=O)N2c3ccccc3C(=O)Nc3cccnc32)CC1 [B] |  |  | ED50 (gastric acid secretion): 0.4 mg/kg; ED (increase of 50 beats per minute) (heart rate): 0.468 mg/kg
6 | CN1C2CCC1CC(OC(=O)C(CO)c1ccccc1)C2 (centres unmarked) [C] |  |  | ED (increase of 50 beats per minute) (heart rate): 0.0077 mg/kg
7 | CN(C)CC1CCCCN1CC(=O)N1c2ccccc2C(=O)Nc2cccnc21 (centres unmarked) [D] | 150 nM and 130 nM | 1500 nM | 
8 | CN(C)CCC1CCCCN1CC(=O)N1c2ccccc2C(=O)Nc2cccnc21 (centres unmarked) [E] | 170 nM | 1300 nM | 
9 | CN(CC1CCCN(CC(=O)N2c3ccccc3C(=O)Nc3cccnc32)C1)C1CCCCC1 (centres unmarked) [L] | 19 nM | 85 nM | 
10 | CN(CC1CCCCN1CC(=O)N1c2ccccc2NC(=O)c2ccccc21)C1CCCCC1 (centres unmarked) [N] | 13 nM | 50 nM | 
11 | CN(CC1CCCN(CC(=O)N2c3ccccc3NC(=O)c3ccccc32)C1)C1CCCCC1 (centres unmarked) [O] | 2.8 nM | 20 nM | 
12 | CN1CCCC1C1CCCN(CC(=O)N2c3ccccc3NC(=O)c3ccccc32)C1 (centres unmarked) [P] | 17 nM | 120 nM | 

Further lines, with some results ahead:

Row | IC50 [1] | IC50 [2] | Compound | further results
13 | 150 nM and 100 nM | 750 nM and 1000 nM | CCN(CC)CC1CCCCN1CC(=O)N1c2ccccc2NC(=O)c2ccccc21 (centres unmarked) [F] | 
14 | 220 nM | 2200 nM | CCN(CC)CC1CCCCN1CC(=O)N1c2ccccc2NC(=O)c2cscc21 (centres unmarked) [G] | 
15 | 400 nM | 4500 nM | CCN(CC)C[C@@H]1CCCN1CC(=O)N1c2ccccc2C(=O)Nc2cccnc21 [H] | 
16 | 90 nM | 800 nM | CCN(CC)C[C@@H]1CCCN1CC(=O)N1c2ccccc2NC(=O)c2ccccc21 [I] | 
17 | 35 nM | 100 nM | CCN(CC)CC1CCCN(CC(=O)N2c3ccccc3NC(=O)c3ccccc32)C1 (centres unmarked) [M] | 
18 | 18 nM | 100 nM | CCCCN(C)CC1CCCCN1CC(=O)N1c2ccccc2NC(=O)c2ccccc21 (centres unmarked) [Q] | 
